“Also recorded” adds a separate entry of the source. Where two headings read alike, the source gives them in different places.
Assays:
[1] = test system: human neutrophils (live PMN's); assay: Neutrophil (PMN + 0.5 nM PMA)-mediated R22-ECM hydrolysis (3H-proline cpm released in 6 h); assay type: cell-based
Source text: The activity of various tetracyclines was investigated employing an in vitro assay of inflammatory tissue injury in which human neutrophils are allowed to degrade a biosynthetically prepared complete interstitial stromal extracellular matrix (ECM). A neutrophil is one type of leukocyte (polymorphonuclear leukocyte). […] E. J. Roemer, K. J. Stanton, and S. R. Simon, "In Vitro Assay Systems for Inflammatory Cell-Mediated Damage to Interstitial Extracellular Matrix," In Vitro Toxicol. 7,75-81 (1994); E. J. Roemer, K. J. Stanton, and S. R. Simon, "In Vitro Assay Systems for Cell Interactions With Interstitial Extracellular Matrix," In Vitro Toxicol. 7,209-224 (1994).
The serine proteinase inhibiting activity of tetracyclines was tested using an in vitro assay of inflammatory tissue injury in which human neutrophils (live PMN's) were allowed to degrade a biosynthetically prepared complete interstitial stromal extracellular matrix (ECM) produced by cultured R22 rat heart smooth muscle cells as described by Roemer et al. (E. J. Roemer, K. J. Stanton, and S. R. Simon, "In Vitro Assay Systems for Inflammatory Cell-Mediated Damage to Interstitial Extracellular Matrix," In Vitro Toxicol. 7,75-81 (1994); E. J. Roemer, K. J. Stanton, and S. R. Simon, "In Vitro Assay Systems for Cell Interactions With Interstitial Extracellular Matrix," In Vitro Toxicol. 7,209-224 (1994)). Ten different chemically modified tetracyclines (CMTs) designated CMT-1 through CMT-10 and doxycycline, at concentrations ranging from 5 μM to 50 μM, were added to the ECM simultaneously with a suspension of 2×10^6 viable human PMN/mL in Hank's balanced salts solution (HBSS). In these studies, the ECM was metabolically radiolabeled with ^3 H-proline, and counts solubilized after six hours of incubation were measured and compared with counts released after incubation with PMN alone.

[2] = target: T1, human leukocyte elastase (HLE) (Homo sapiens, UniProt P08246); assay: ECM degradation mediated by purified HLE; assay type: biochemical
T1 sequence (P08246 30-267): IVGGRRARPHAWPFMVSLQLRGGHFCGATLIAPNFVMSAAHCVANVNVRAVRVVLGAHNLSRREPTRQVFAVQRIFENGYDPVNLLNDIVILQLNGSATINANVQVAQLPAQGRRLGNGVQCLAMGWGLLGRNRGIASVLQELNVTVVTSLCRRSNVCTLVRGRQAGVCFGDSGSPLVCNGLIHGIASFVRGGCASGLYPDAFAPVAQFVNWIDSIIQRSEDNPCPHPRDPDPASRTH
Experimental: Direct inhibition of HLE by CMT-3 was determined (Example 2) using a modification of the assay of human leukocyte elastase (HLE) activity described by Ying et al. (Q. Ying, A. R. Rinehart, S. R. Simon, and J. C. Cheronis, "Inhibition of Human Leukocyte Elastase by Ursolic Acid: Evidence for a Hydrophobic Binding Site for Pentacyclic Triterpenes," Biochem. J. 277, 521-526 (1991)) in which the organic solvent and detergent concentrations have been reduced, using a traditional assay of human leukocyte elastase (HLE) activity by measurement of the amidolysis of the chromogenic oligopeptide substrate, methoxysuccinyl-Ala-Ala-Pro-Val-p-nitroanilide. This oligopeptide is generally assumed to occupy the first five subsites of the extended substrate binding domain in HLE. […] When CMT-3 is employed in the assay of ECM degradation mediated by purified HLE rather than live neutrophils, it proves to be an effective inhibitor, with an apparent I50 of ~25-50 μM.
The capacity of CMT-3 to inhibit HLE is not confined to amidolytic assays, as already shown in FIG. 2, in which the degradation of a complete interstitial extracellular matrix by purified HLE is inhibited by CMT-3.

[3] = target: T1, human leukocyte elastase (HLE); assay: HLE amidolytic activity (methoxysuccinyl-Ala-Ala-Pro-Val-p-nitroanilide); assay type: biochemical
Source text: This oligopeptide is generally assumed to occupy the first five subsites of the extended substrate binding domain in HLE.
To avoid time-dependent adsorption of HLE onto the wells of the 96-well microplates used in the amidolytic assays, the plates were pretreated with a solution of 0.2% bovine serum albumin. […] The […] concentration at which the Dixon plots intersect is a measure of Ki for the inhibitor.
The inhibitory activity of doxycycline towards amidolysis of methoxysuccinyl-Ala-Ala-Pro-Val-p-nitroanilide by HLE was also determined in the presence of 2% DMSO and no detergent, as described above for CMT-3.

leukocyte elastase [4] = assay: Leukocyte elastase activity in gingival extracts of LPS-injected rats; assay type: in vivo, rat; conditions: 2 mg or 5 mg CMT-3 daily, oral gavage, six days, succinyl-Ala-Ala-Ala-p-nitroanilide
Experimental: Rats received 0.01 mg of E. coli lipopolysaccharide (LPS) or only a vehicle of saline injected in a volume of 10 μl into the maxillary and mandibular labial gingiva on alternate days for a period of six days. Two sets of rats also received 2 mg or 5 mg CMT-3 daily in a volume of 1 ml, administered by oral gavage, for the six day period, while the other sets of rats received only the vehicle of 2% carboxymethylcellulose. At the end of the six day treatment period, the animals were sacrificed and the gingival tissues were dissected. The tissues from each experimental group were pooled, frozen and thawed, and extracted for assays of enzymatic activity according to the procedure of Yu et al. (Z. Yu, N. S. Ramamurthy, M. Leung, K. M. Chang, T. F. McNamara, and L. M. Golub, "Chemically Modified Tetracycline Normalizes Collagen Metabolism in Diabetic Rats," J. Periodont. Res. 28, 420-428 (1993)). Leukocyte elastase activity was assayed using the substrate succinyl-Ala-Ala-Ala-p-nitroanilide according to the procedure of Ramamurthy and Golub (1983) (N. S. Ramamurthy, and L. M. Golub, "Diabetes Increases Collagenase Activity in Extracts of Rat Gingiva and Skin," J. Periodont. Res. 18, 23-30 (1983)). The finding reported here is the capacity of orally administered CMT-3 to reduce the level of leukocyte elastase activity in the gingival extracts of LPS-injected rats. […]

leukocyte elastase [5] = target: T2, leukocyte elastase (Homo sapiens, UniProt P08246); assay: Leukocyte elastase inhibitory activity; assay type: biochemical
T2 sequence (P08246 30-247): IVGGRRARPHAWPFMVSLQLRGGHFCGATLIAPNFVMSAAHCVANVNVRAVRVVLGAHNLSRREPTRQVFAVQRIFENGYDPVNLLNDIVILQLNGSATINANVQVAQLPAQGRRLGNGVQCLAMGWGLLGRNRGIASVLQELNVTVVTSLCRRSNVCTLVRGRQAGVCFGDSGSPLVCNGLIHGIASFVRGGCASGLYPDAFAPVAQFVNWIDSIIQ

[6] = target: T1, human leukocyte elastase (HLE); assay: HLE amidolytic activity (methoxysuccinyl-Ala-Ala-Pro-Val-p-nitroanilide); assay type: biochemical; conditions: in the presence of 10% dimethylsulfoxide and 0.1% Triton X-100

- IC50 ([2]; purified HLE rather than live neutrophils, read-out: apparent I50, ECM degradation mediated by purified HLE): 25 to 50 µM
- Ki ([3]; 2% DMSO, no detergent, 100 μM through 300 μM substrate, Dixon plot, read-out: Ki for inhibition of amidolytic activity of HLE): 25 to 40 µM
- mechanism of inhibition of HLE amidolytic activity ([3]; Dixon and Cornish-Bowden plots): predominantly competitive inhibitor
- Ki ([3]; Dixon and Cornish-Bowden plots, FIGS. 3-5, read-out: apparent K1, inhibition of amidolysis): 18 to 40 µM
- inhibitory potency, HLE amidolytic activity, in words [6]: markedly reduced
Compound: NC(=O)C1=C(O)C2(O)C(=O)C3=C(O)c4c(O)cccc4CC3CC2CC1=O (stereo not drawn) [CMT-3, 6-demethyl-6-deoxy-4-de(dimethylamino)tetracycline]
- inhibition of neutrophil-mediated ECM degradation [1]: ~ 50%
- capacity to inhibit ECM degradation (protecting the ECM from neutrophil-mediated destruction), in words ([1]; 30 μM, FIG. 1): far superior to other tetracyclines in protecting the ECM from neutrophil-mediated destruction
- inhibition of ECM degradation, in words ([1]; 5-50 μM, Table 1 and FIG. 1): good inhibition of ECM degradation at all doses employed in this assay
- inhibition of neutrophil-mediated ECM degradation ([1]; 25-50 μM, dose response studies): approximately 50%
- activity at 5 µM ([1]; Homo sapiens, Neutrophil, 5 μm, control = hydrolysis in absence of any inhibitor normalized to 100%, 6 h at 37° C.): 69%
- activity at 25 µM ([1]; Homo sapiens, Neutrophil, 25 μm, control = hydrolysis in absence of any inhibitor normalized to 100%, 6 h at 37° C.): 55%
- activity at 50 µM ([1]; Homo sapiens, Neutrophil, 50 μm, control = hydrolysis in absence of any inhibitor normalized to 100%, 6 h at 37° C.): 50%
- inhibition of HLE-mediated degradation of ECM, in words ([2]; FIG. 2: 25 μM CMT-3, 10 μM purified HLE, compared with PMN, other tetracyclines at comparable doses): comparable inhibition of human neutrophil-mediated and human leukocyte elastase-mediated degradation of extracellular matrix; also recorded: comparable to that determined from the assays of HLE amidolytic activity
- leukocyte elastase activity in gingival extracts, in words (leukocyte elastase [4]): reduced the activity of leukocyte elastase; also recorded: to the levels detected in animals receiving gingival injections of saline solution alone
- leukocyte elastase inhibitory activity, in words (leukocyte elastase [5]): substantial leukocyte elastase inhibitory activity
